Experimental data taken from patent US20120270875A1, “PYRIMIDINE AMIDE COMPOUNDS” (priority 2011, published 2012).
Where two headings read alike, the source gives them in different places.

Assays:
sLFA-1/ICAM-1 = sLFA-1/ICAM-1 (Homo sapiens, UniProt P05107+P20701, DEL701-769); test: sLFA-1/ICAM-1 ELISA; type: binding
Experimental: sLFA-1/ICAM-1 ELISA and Mac-1/ICAM-1 ELISA
Plates were coated with either 50 μl/well of 2.0 ug/ml solution of sLFA-1 or Mac-1 receptor in divalent cation buffer (1 mM MnCl2, 0.14M NaCl, 20 mM HEPES pH 7.2) at 4° C. overnight. Two hundred fifty μl of blocking buffer (1% BSA in divalent cation buffer) was added to each well 1 hour at 37° C. Plates were washed 3 times with wash buffer (TBS/0.05% Tween-20/1 mM MnCl2). The compound to be tested was solubilized in DMSO. A series of 1:3 dilutions were performed to achieve a concentration range of 0.45 nM-3 uM. Fifty μl of binding buffer (0.5% BSA in divalent cation buffer)/1% DMSO and 50 μl of the solutions to be tested were added to the appropriate wells and incubated for 1 hour. Fifty μl of 5dICAM-Fc (27 ng/ml) was added to the appropriate wells and 50 μl binding buffer was added to non-specific binding wells and incubated for 2 hours and washed. One hundred μl of 1:4000 HRP-goat anti-huIgG was added to each well and incubated for 1 hour and washed. One hundred μl of 1:1 TMB solution was added to each well and developed for 20 min at room temperature. Color development was stopped by adding 100 μl H3PO4 to each well. Absorbance was measured at 450 nm.

[1] = test system: PBMC's from two healthy donors; test: Human Mixed Lymphocyte Reaction (hMLR); type: cell-based; conditions: 3H-thymidine incorporation, read-out: human MLR (IC50)
Experimental: Human Mixed Lymphocyte Reaction (hMLR)
PBMC's were isolated from two healthy donors by Ficoll gradient. Cells were resuspended with 4 mL assay media and counted with a Coulter Counter. Both cell populations were resuspended to 1×10^7/mL. Stimulator cells were irradiated for 2.5 min (2000 RAD) in cesium irradiator. 5×10^5 cells were added to duplicate wells of the plate. Included were quadruplicate wells receiving responder cells alone and stimulator cells alone. The compound to be tested was solubilized in DMSO. A series of 1:3 dilutions were performed to achieve a concentration range of 0.45 nM-3 uM. One hundred μl of the solutions to be tested were added to the cell plate (100 μl of 2% DMSO/media added to control wells). Plates were then incubated for 2.5 days at 37° C. with 5% CO2. Plates were pulsed with 50 μl/well 3H-thymidine at 0.5 uCi/well then incubated for 6 hours at 37° C. with 5% CO2. Cells were harvested using Cell Harvester (TomTec) and counted on TopCount (Perkin Elmer).

[2] = sLFA-1 coated plates, 5dICAM-Fc binding, ELISA, read-out: LFA-1/ICAM (IC50)

Chain of sLFA-1/ICAM-1 (P20701 26-1090 limits assumed, stated change not applied): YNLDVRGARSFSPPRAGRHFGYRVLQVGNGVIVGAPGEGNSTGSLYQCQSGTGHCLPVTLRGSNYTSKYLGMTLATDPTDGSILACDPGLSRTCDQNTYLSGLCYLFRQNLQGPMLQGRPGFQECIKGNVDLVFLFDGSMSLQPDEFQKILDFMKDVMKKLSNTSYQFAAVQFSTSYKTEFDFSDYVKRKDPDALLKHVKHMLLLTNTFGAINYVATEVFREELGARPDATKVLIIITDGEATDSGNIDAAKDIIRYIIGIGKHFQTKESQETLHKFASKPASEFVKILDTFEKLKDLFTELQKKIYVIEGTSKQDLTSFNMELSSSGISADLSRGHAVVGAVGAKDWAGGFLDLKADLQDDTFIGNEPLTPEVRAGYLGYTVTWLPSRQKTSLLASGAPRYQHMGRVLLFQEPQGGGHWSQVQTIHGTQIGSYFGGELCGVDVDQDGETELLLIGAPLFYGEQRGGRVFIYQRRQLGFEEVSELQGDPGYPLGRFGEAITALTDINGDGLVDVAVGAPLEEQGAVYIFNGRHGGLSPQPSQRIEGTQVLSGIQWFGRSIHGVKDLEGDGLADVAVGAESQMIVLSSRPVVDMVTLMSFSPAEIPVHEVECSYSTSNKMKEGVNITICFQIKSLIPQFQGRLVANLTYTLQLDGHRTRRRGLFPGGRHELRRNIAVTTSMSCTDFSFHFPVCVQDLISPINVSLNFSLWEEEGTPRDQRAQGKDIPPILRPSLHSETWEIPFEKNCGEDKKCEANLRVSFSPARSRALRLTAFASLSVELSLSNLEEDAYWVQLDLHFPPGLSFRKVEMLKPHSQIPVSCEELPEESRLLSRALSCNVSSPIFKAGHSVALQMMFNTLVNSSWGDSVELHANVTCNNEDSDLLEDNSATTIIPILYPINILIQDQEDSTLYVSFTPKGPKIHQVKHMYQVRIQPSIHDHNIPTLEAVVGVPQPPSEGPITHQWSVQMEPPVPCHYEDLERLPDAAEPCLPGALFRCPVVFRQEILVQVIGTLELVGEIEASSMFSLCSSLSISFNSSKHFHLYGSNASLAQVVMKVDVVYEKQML
Chain of sLFA-1/ICAM-1 (P05107 23-700 limits assumed, stated change not applied): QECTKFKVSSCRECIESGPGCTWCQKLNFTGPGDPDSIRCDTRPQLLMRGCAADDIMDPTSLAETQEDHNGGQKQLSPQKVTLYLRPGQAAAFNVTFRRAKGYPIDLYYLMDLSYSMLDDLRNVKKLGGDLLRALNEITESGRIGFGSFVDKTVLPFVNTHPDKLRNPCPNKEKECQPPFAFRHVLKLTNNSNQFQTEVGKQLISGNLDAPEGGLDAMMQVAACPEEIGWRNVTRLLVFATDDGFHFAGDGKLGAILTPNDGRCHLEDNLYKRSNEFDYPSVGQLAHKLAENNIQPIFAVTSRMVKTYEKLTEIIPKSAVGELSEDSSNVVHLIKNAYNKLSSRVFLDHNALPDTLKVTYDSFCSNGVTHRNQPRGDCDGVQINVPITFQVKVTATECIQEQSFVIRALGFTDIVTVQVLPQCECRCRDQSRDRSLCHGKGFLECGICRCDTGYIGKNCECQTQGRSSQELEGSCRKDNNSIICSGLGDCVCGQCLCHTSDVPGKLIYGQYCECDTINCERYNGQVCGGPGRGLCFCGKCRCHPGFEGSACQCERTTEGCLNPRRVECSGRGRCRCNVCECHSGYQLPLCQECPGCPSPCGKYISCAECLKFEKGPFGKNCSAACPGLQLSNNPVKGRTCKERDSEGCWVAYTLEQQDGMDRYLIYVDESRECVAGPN

| SMILES | IC50 (sLFA-1/ICAM-1; [2]) | IC50 [1] | IC50 (sLFA-1/ICAM-1) |
| --- | --- | --- | --- |
| CC(=O)NC[C@H](NC(=O)c1c(C)nc(NCCCc2cccc3[nH]ncc23)nc1C)C(=O)O [Example 4, (S)-3-acetylamino-2-({2-[3-(1H-indazol-4-yl)-propylamino]-4,6-dimethyl-pyrimidine-5-carbonyl}-amino)-propionic acid] | 120 nM | 10000 nM | – |
| Cc1nc(NCCCc2cccc(O)c2)nc(C)c1C(=O)N[C@@H](CNC(=O)c1cscn1)C(=O)O [Example 46, (S)-2-({2-[3-(3-hydroxy-phenyl)-propylamino]-4,6-dimethyl-pyrimidine-5-carbonyl}-amino)-3-[(thiazole-4-carbonyl)-amino]-propionic acid] | 26 nM | 753 nM | – |
| Cc1nc(NCCCc2cccc(O)c2)ncc1C(=O)N[C@@H](CNC(=O)c1cccs1)C(=O)O [Example 76, (S)-2-({2-[3-(3-Hydroxy-phenyl)-propylamino]-4-methyl-pyrimidine-5-carbonyl}-amino)-3-[(thiophene-2-carbonyl)-amino]-propionic acid] | 9 nM | 1760 nM | – |
| CCc1nc(NCCCc2cccc(O)c2)nc(CC)c1C(=O)N[C@@H](CNC(=O)c1cccs1)C(=O)O [Example 79, (S)-2-({4,6-Diethyl-2-[3-(3-hydroxy-phenyl)-propylamino]-pyrimidine-5-carbonyl}-amino)-3-[(thiophene-2-carbonyl)-amino]-propionic acid] | 90 nM | – | – |
| Cc1nc(NCCCc2cccc(O)c2)nc(C)c1C(=O)N[C@@H](CNC(=O)c1ccsc1)C(=O)O [Example 85, (S)-2-({2-[3-(3-hydroxy-phenyl)-propylamino]-4,6-dimethyl-pyrimidine-5-carbonyl}-amino)-3-[(thiophene-3-carbonyl)-amino]-propionic acid] | 12 nM | – | – |
| Cc1ccc(C(=O)NC[C@H](NC(=O)c2c(C)nc(NCCCc3cccc(O)c3)nc2C)C(=O)O)s1 [Example 87, (S)-2-({2-[3-(3-hydroxy-phenyl)-propylamino]-4,6-dimethyl-pyrimidine-5-carbonyl}-amino)-3-[(5-methyl-thiophene-2-carbonyl)-amino]-propionic acid] | 4 nM | 1430 nM | – |
| Cc1ccsc1C(=O)NC[C@H](NC(=O)c1c(C)nc(NCCCc2cccc(O)c2)nc1C)C(=O)O [Example 91, (S)-2-({2-[3-(3-hydroxy-phenyl)-propylamino]-4,6-dimethyl-pyrimidine-5-carbonyl}-amino)-3-[(3-methyl-thiophene-2-carbonyl)-amino]-propionic acid] | 42 nM | – | – |
| Cc1nc(NCCCc2cccc(O)c2)nc(C)c1C(=O)N[C@@H](CNC(=O)c1cnccn1)C(=O)O [Example 93, (S)-2-({2-[3-(3-hydroxy-phenyl)-propylamino]-4,6-dimethyl-pyrimidine-5-carbonyl}-amino)-3-[(pyrazine-2-carbonyl)-amino]-propionic acid] | 29 nM | 2300 nM | – |
| Cc1nc(NCCCc2cccc(O)c2)nc(C)c1C(=O)N[C@@H](CNC(=O)c1ccc(Cl)s1)C(=O)O [Example 95, (S)-3-[(5-Chloro-thiophene-2-carbonyl)-amino]-2-({2-[3-(3-hydroxy-phenyl)-propylamino]-4,6-dimethyl-pyrimidine-5-carbonyl}-amino)-propionic acid] | 265 nM | – | – |
| Cc1nc(NCCCc2cccc(O)c2)nc(C)c1C(=O)N[C@@H](CNC(=O)C12CC3CC(CC(C3)C1)C2)C(=O)O [Example 99, (S)-3-[(Adamantane-1-carbonyl)-amino]-2-({2-[3-(3-hydroxy-phenyl)-propylamino]-4,6-dimethyl-pyrimidine-5-carbonyl}-amino)-propionic acid] | 287 nM | – | – |
| Cc1cnc(C(=O)NC[C@H](NC(=O)c2c(C)nc(NCCCc3cccc(O)c3)nc2C)C(=O)O)cn1 [Example 101, (S)-2-({2-[3-(3-Hydroxy-phenyl)-propylamino]-4,6-dimethyl-pyrimidine-5-carbonyl}-amino)-3-[(5-methyl-pyrazine-2-carbonyl)-amino]-propionic acid] | 52 nM | 6340 nM | – |
| CCc1ccc(C(=O)NC[C@H](NC(=O)c2c(C)nc(NCCCc3cccc(O)c3)nc2C)C(=O)O)s1 [Example 105, (S)-[(5-Ethyl-thiophene-2-carbonyl)-amino]-2-({2-[3-(3-hydroxy-phenyl)-propylamino]-4,6-dimethyl-pyrimidine-5-carbonyl}-amino)-3-propionic acid] | 103 nM | – | – |
| Cc1nc(NCCCc2cccc(O)c2)nc(C)c1C(=O)N[C@@H](CNC(=O)Nc1ccccc1)C(=O)O [Example 107, (S)-2-({2-[3-(3-hydroxy-phenyl)-propylamino]-4,6-dimethyl-pyrimidine-5-carbonyl}-amino)-3-(3-phenyl-ureido)-propionic acid] | – | – | 166 nM |
| Cc1nc(NCCCc2cccc(O)c2)nc(C)c1C(=O)N[C@@H](CNC(=O)OCc1ccccc1)C(=O)O [Example 111, (S)-3-Benzyloxycarbonylamino-2-({2-[3-(3-Hydroxy-phenyl)-propylamino]-4,6-dimethyl-pyrimidine-5-carbonyl}-amino)-propionic acid] | 56 nM | 4880 nM | – |
| Cc1nc(NCCCc2cccc(O)c2)nc(C)c1C(=O)N[C@@H](CNC(=O)N(C)C)C(=O)O [Example 113, (S)-3-(3,3-Dimethyl-ureido)-2-({2-[3-(3-Hydroxy-phenyl)-propylamino]-4,6-dimethyl-pyrimidine-5-carbonyl}-amino)-propionic acid] | 74 nM | 4180 nM | – |

More lines, in order of falling IC50 (sLFA-1/ICAM-1; [2]), values ahead:

| IC50 (sLFA-1/ICAM-1; [2]) | SMILES | IC50 [1] | IC50 (sLFA-1/ICAM-1) |
| --- | --- | --- | --- |
| 456 nM | Cc1nc(NCCCc2cccc(O)c2)nc(C)c1C(=O)N[C@@H](CNC(=O)N1CCCc2ccccc21)C(=O)O [Example 115, (S)-3-[(3,4-Dihydro-2H-quinoline-1-carbonyl)-amino]-2-({2-[3-(3-hydroxy-phenyl)-propylamino]-4,6-dimethyl-pyrimidine-5-carbonyl}-amino)-propionic acid] | – | – |
| 198 nM | COC(=O)NC[C@H](NC(=O)c1c(C)nc(NCCCc2cccc(O)c2)nc1C)C(=O)O [Example 109, (S)-2-({2-[3-(3-Hydroxy-phenyl)-propylamino]-4,6-dimethyl-pyrimidine-5-carbonyl}-amino)-3-methoxycarbonylamino-propionic acid] | – | – |
| 177 nM | Cc1cccc(C(=O)NC[C@H](NC(=O)c2c(C)nc(NCCCc3cccc(O)c3)nc2C)C(=O)O)c1 [Example 97, (S)-2-({2-[3-(3-hydroxy-phenyl)-propylamino]-4,6-dimethyl-pyrimidine-5-carbonyl}-amino)-3-(3-methyl-benzoylamino)-propionic acid] | – | – |
| 152 nM | Cc1nc(NC/C=C/c2cccc(O)c2)nc(C)c1C(=O)N[C@@H](CNC(=O)c1cccs1)C(=O)O [Example 74, (S)-2-({2-[(E)-3-(3-Hydroxy-phenyl)-allylamino]-4,6-dimethyl-pyrimidine-5-carbonyl}-amino)-3-[(thiophene-2-carbonyl)-amino]-propionic acid] | 2060 nM | – |
| 78 nM | Cc1csc(C(=O)NC[C@H](NC(=O)c2c(C)nc(NCCCc3cccc(O)c3)nc2C)C(=O)O)c1 [Example 89, (S)-2-({2-[3-(3-hydroxy-phenyl)-propylamino]-4,6-dimethyl-pyrimidine-5-carbonyl}-amino)-3-[(4-methyl-thiophene-2-carbonyl)-amino]-propionic acid] | – | – |
| 66 nM | Cc1nc(NCCCc2cccc(O)c2)nc(C)c1C(=O)N[C@@H](CNC(=O)c1sccc1Cl)C(=O)O [Example 103, (S)-3-[(3-Chloro-thiophene-2-carbonyl)-amino]-2-({2-[3-(3-hydroxy-phenyl)-propylamino]-4,6-dimethyl-pyrimidine-5-carbonyl}-amino)-propionic acid] | – | – |
| 56 nM | Cc1nc(NC/C=C\c2cccc(O)c2)nc(C)c1C(=O)N[C@@H](CNC(=O)c1cccs1)C(=O)O [Example 73, (S)-2-({2-[(Z)-3-(3-Hydroxy-phenyl)-allylamino]-4,6-dimethyl-pyrimidine-5-carbonyl}-amino)-3-[(thiophene-2-carbonyl)-amino]-propionic acid] | 809 nM | – |
| 20 nM | CCc1nc(NCCCc2cccc(O)c2)nc(C)c1C(=O)N[C@@H](CNC(=O)c1cccs1)C(=O)O [Example 78, (S)-2-({4-Ethyl-2-[3-(3-hydroxy-phenyl)-propylamino]-6-methyl-pyrimidine-5-carbonyl}-amino)-3-[(thiophene-2-carbonyl)-amino]-propionic acid] | 766 nM | – |
